# Experimental data reported in patent US20100278921A1 (priority 2009, published 2010).
# Read-outs that look alike come from different tables or passages of the source.
# Legend:
# [1] = Solubility in water; type: physicochemical
# From the text: It will be recognized that aqueous solubility of many compounds is pH dependent; in the case of such compounds the solubility of interest herein is at a physiologically relevant pH, for example a pH of about 1 to about 8.
# [2] = Bioavailability of ABT-737 in a rat model; type: in vivo; conditions: regardless of formulation
"solubility ([1]; pH 2, aqueous buffer, read-out: solubility in water at pH 2) [µg/mL]","solubility ([1]; physiologically relevant pH, about 1 to about 8, read-out: solubility in water) [µg/mL]",Bioavailability [2] [%],Compound
< 4,< 10,,CC1(C)CCC(c2ccc(Cl)cc2)=C(CN2CCN(c3ccc(C(=O)NS(=O)(=O)c4ccc(N[C@H](CCN5CCOCC5)CSc5ccccc5)c(S(=O)(=O)C(F)(F)F)c4)cc3)CC2)C1 [ABT-263]
,,≤ 6,"CN(C)CC[C@H](CSc1ccccc1)Nc1ccc(S(=O)(=O)NC(=O)c2ccc(N3CCN(Cc4ccccc4-c4ccc(Cl)cc4)CC3)cc2)cc1[N+](=O)[O-] [ABT-737, N-(4-(4-((4′-chloro-(1,1′-biphenyl)-2-yl)methyl)piperazin-1-yl)benzoyl)-4-(((1R)-3-(dimethylamino)-1-((phenylsulfanyl)methyl)propyl)amino)-3-nitrobenzene-sulfonamide]"
